Laboratory results as given in patent US9801850B2, “Antibacterial agent” (OSAKA UNIVERSITY, priority 2009, dated 2017).

Columns and labels:
[1] = test system: MRSA clinical isolate No. 8; test: Checker-board method, combination with β-lactam agent (Example 6); type: cell-based, Staphylococcus aureus; set-up: key to minimum EGCG-C16 concentration inhibiting growth alone: *MIC: The minimum EGCG-C16 concentration when the growth of the bacteria was inhibited using EGCG-C16 alone under a β-lactam agent free condition
Protocol: (§1) EGCG-C16 was dissolved in 100% DMSO, and each of the above-described β-lactam agents was dissolved in sterile distilled water. Thereafter, they were diluted with sterile distilled water so as to achieve predetermined concentrations, and the respective agents at the respective concentrations were combined one another. The change in MIC of each β-lactam agent by the addition of EGCG-C16 was measured by the checker-board method. […] The minimum inhibitory concentration (MIC) of each of the above-described β-lactam agents when used in combination with EGCG-C16 was measured in the same manner as described in Section (2) of Example 2, except that the MRSA ATCC43300 and the MRSA clinical isolate No. 8 used in Example 2 were used as the bacteria.
(§2) As Comparative Example 6, the minimum inhibitory concentration (MIC) was measured in the same manner as in Example 6, except that EGCG was used instead of EGCG-C16.

MRSA ATCC43300 [2] = test: as above; type: cell-based, Staphylococcus aureus; set-up: key to minimum EGCG-C16 concentration inhibiting growth alone: *MIC: The minimum EGCG-C16 concentration when the growth of the bacteria was inhibited using EGCG-C16 alone under a β-lactam agent free condition
Protocol: as §1, §2

MRSA ATCC43300 [3] = test: Membrane damaging properties, SYTOX Green fluorescence (Example 4); type: cell-based, Staphylococcus aureus; conditions: for fluorescence intensity ratio of SYTOX Green (control PBS = 1): 37° C., 15 minutes, EGCG derivative 4-32, EGCG 8-128, NISIN 1-8 μg/ml, FIG. 3
Protocol: As an antibacterial agent, the EGCG-C16 prepared in Example 1 was used in Example 4; EGCG was used in Comparative Example 4; and membrane-damaging peptide NISIN (MP Biomedicals) was used in a reference example. Antibacterial agent solutions of EGCG-C16 and EGCG were prepared by dissolving them in DMSO so as to achieve top concentrations, respectively. An antibacterial agent solution of the other antibacterial agent was prepared by dissolving it in PBS and diluted with PBS as appropriate. The influence of DMSO used for dissolving the antibacterial agents also was considered.
MSSA ATCC25923 and MRSA ATCC43300 were subjected to shaking culture in MH-broths (Difco) until they reached a late stage in the exponential growth phase. The thus-obtained culture solutions were each centrifuged at 7000 rpm for 10 minutes, and bacterial cells that had settled were suspended in PBS. The suspension of the bacterial cells was added to wells of a 384 black plate, and each of the antibacterial agent solutions was further added thereto and mixed. The resultant mixture was incubated at 37° C. for 15 minutes. Subsequently, a dead cell-staining dye (trade name “SYTOX Green”, LONZA) was mixed in each well so that the concentration thereof became 10 μmol/l, and the resultant mixture was incubated at 37° C. for 10 minutes. The final concentrations of the respective antibacterial agents were as follows: 4, 8, 16, and 32 μg/ml for the EGCG derivative; 8, 16, 32, 64, and 128 μg/ml for EGCG; and 1, 2, 4, and 8 μg/ml for NISIN. […] On the other hand, as a control, the fluorescence intensity was measured in the same manner, except that PBS or 10% DMSO was added instead of the antibacterial agent solutions. Then, regarding each of the MSSA and MRSA, the ratio of the fluorescence intensity when each of the agents was added was calculated assuming that the fluorescence intensity obtained in the control (PBS) was 1.

E. coli MG1655 = test: Bactericidal effect, number of remaining viable cells; type: cell-based, Escherichia coli; conditions: EGCG-C16 200 μg/ml, 0 to 6 hours, FIG. 2(B)
Protocol: (§3) The bactericidal effect of EGCG-C16 against MRSA ATCC43300, E. coli MG1655, and P. aeruginosa PAO1 was measured. Each strain of bacteria was cultured using an MH-broth as a medium.
(§4) The antibacterial agent solution and the bacterial culture solution were mixed together and the resultant mixture was cultured at 37° C. in the same manner as described in the above section (2), except that the final concentration of the EGCG-C16 in the mixture were set to: 6.25 μg/ml or 25 μg/ml for the MRSA; 200 μg/ml for the E. coli; and 50 μg/ml, 100 μg/ml, and 200 μg/ml for the P. aeruginosa. The number of viable cells in the mixture of the antibacterial agent solution and the bacterial culture solution was set to 1×10^5 CFU/ml. Then, after a lapse of a predetermined time from the start of the culture (0 hours, 2 hours, 4 hours, and 6 hours), the culture solution was collected and diluted with physiological saline so as to prepare 10-fold dilution series of solutions. 100 μl of each of the diluted bacterial culture solutions was placed on a petri dish. The diluted bacterial culture solution was hardened by mixing it with 10 ml of a Trypticase-soy Agar (BBL) that was kept at 50° C., and cultured at 37° C. overnight. Then, the number of the formed colonies (CFU/ml) was counted, and the number of remaining viable cells was measured. […]

MRSA ATCC43300 [4] = test: as above; type: cell-based, Staphylococcus aureus; conditions: EGCG-C16 25 μg/ml, 0 to 6 hours, FIG. 2(A)
Protocol: as §3, §4

P. aeruginosa PAO1 = test: as above; type: cell-based, Pseudomonas aeruginosa; conditions: EGCG-C16 50, 100, 200 μg/ml, 0 to 6 hours, FIG. 2(C)
Protocol: as §3, §4

[5] = concentration of EGCG-C16 or EGCG 0 μg/ml
[6] = concentration of EGCG-C16 or EGCG 8 μg/ml
[7] = MRSA ATCC43300, concentration of EGCG-C16 or EGCG 0 μg/ml
[8] = MRSA ATCC43300, concentration of EGCG-C16 or EGCG 8 μg/ml
[9] = MRSA ATCC43300, concentration of EGCG-C16 or EGCG 16 μg/ml
[10] = MRSA ATCC43300, concentration of EGCG-C16 or EGCG 32 μg/ml
[11] = MRSA ATCC43300, concentration of EGCG-C16 or EGCG 64 μg/ml
[12] = MRSA ATCC43300, concentration of EGCG-C16 or EGCG 128 μg/ml
[13] = MRSA ATCC43300, concentration of EGCG-C16 or EGCG 2 μg/ml
[14] = MRSA ATCC43300, concentration of EGCG-C16 or EGCG 4 μg/ml

O=C(O[C@@H]1Cc2c(O)cc(O)cc2O[C@@H]1c1cc(O)c(O)c(O)c1)c1cc(O)c(O)c(O)c1 [EGCG, Epigallocatechin gallate, reference compound]
MIC of ABPC when used in combination with EGCG-C16 or EGCG [1, 5]: 64 µg/mL | MIC of ABPC when used in combination with EGCG-C16 or EGCG [1, 6]: 4 µg/mL | MIC of ABPC when used in combination with EGCG-C16 or EGCG ([1]; concentration of EGCG-C16 or EGCG 16 μg/ml): 8 µg/mL | MIC of ABPC when used in combination with EGCG-C16 or EGCG ([1]; concentration of EGCG-C16 or EGCG 32 μg/ml): 8 µg/mL | MIC of ABPC when used in combination with EGCG-C16 or EGCG ([1]; concentration of EGCG-C16 or EGCG 64 μg/ml): 4 µg/mL | MIC of ABPC when used in combination with EGCG-C16 or EGCG ([1]; concentration of EGCG-C16 or EGCG 128 μg/ml): 1 µg/mL | antagonistic action in combination with IPM (MRSA ATCC43300 [2]; ATCC43300, IPM susceptible, EGCG at 16 to 64 μg/ml, EGCG derivative in the examined concentration range): weak antagonistic action | MIC of ABPC when used in combination with EGCG-C16 or EGCG (MRSA ATCC43300 [2]; [7]): 32 µg/mL | MIC of IPM when used in combination with EGCG-C16 or EGCG (MRSA ATCC43300 [2]; [7]): 0.016 µg/mL | MIC of ABPC when used in combination with EGCG-C16 or EGCG (MRSA ATCC43300 [2]; [8]): 8 µg/mL | MIC of IPM when used in combination with EGCG-C16 or EGCG (MRSA ATCC43300 [2]; [8]): 0.016 µg/mL | MIC of ABPC when used in combination with EGCG-C16 or EGCG (MRSA ATCC43300 [2]; [9]): 4 µg/mL | MIC of IPM when used in combination with EGCG-C16 or EGCG (MRSA ATCC43300 [2]; [9]): 0.031 µg/mL | MIC of ABPC when used in combination with EGCG-C16 or EGCG (MRSA ATCC43300 [2]; [10]): 4 µg/mL | MIC of IPM when used in combination with EGCG-C16 or EGCG (MRSA ATCC43300 [2]; [10]): 0.031 µg/mL | MIC of ABPC when used in combination with EGCG-C16 or EGCG (MRSA ATCC43300 [2]; [11]): 2 µg/mL | MIC of IPM when used in combination with EGCG-C16 or EGCG (MRSA ATCC43300 [2]; [11]): 0.031 µg/mL | MIC of ABPC when used in combination with EGCG-C16 or EGCG (MRSA ATCC43300 [2]; [12]): 1 µg/mL | MIC of IPM when used in combination with EGCG-C16 or EGCG (MRSA ATCC43300 [2]; [12]): 0.016 µg/mL | fluorescence intensity ratio of SYTOX Green (control PBS = 1) (MRSA ATCC43300 [3]): smaller than 1

EGCG-palmitate [EGCG-C16]
number of remaining viable cells (E. coli MG1655): bacteriostatic action | number of remaining viable cells (MRSA ATCC43300 [4]): not only inhibited the propagation but also reduced the number of viable cells | number of remaining viable cells (P. aeruginosa PAO1): bacteriostatic action | MIC of ABPC when used in combination with EGCG-C16 or EGCG [1, 5]: 64 µg/mL | MIC of ABPC when used in combination with EGCG-C16 or EGCG ([1]; concentration of EGCG-C16 or EGCG 2 μg/ml): 32 µg/mL | MIC of ABPC when used in combination with EGCG-C16 or EGCG ([1]; concentration of EGCG-C16 or EGCG 4 μg/ml): 16 µg/mL | MIC of ABPC when used in combination with EGCG-C16 or EGCG [1, 6]: 2 µg/mL | minimum EGCG-C16 concentration inhibiting growth alone ([1]; β-lactam agent free, mark stands in the column 16 μg/ml): *MIC | MIC of ABPC when used in combination with EGCG-C16 or EGCG (MRSA ATCC43300 [2]; [7]): 32 µg/mL | MIC of IPM when used in combination with EGCG-C16 or EGCG (MRSA ATCC43300 [2]; [7]): 0.016 µg/mL | MIC of ABPC when used in combination with EGCG-C16 or EGCG (MRSA ATCC43300 [2]; [13]): 16 µg/mL | MIC of IPM when used in combination with EGCG-C16 or EGCG (MRSA ATCC43300 [2]; [13]): 0.016 µg/mL | MIC of ABPC when used in combination with EGCG-C16 or EGCG (MRSA ATCC43300 [2]; [14]): 8 µg/mL | MIC of IPM when used in combination with EGCG-C16 or EGCG (MRSA ATCC43300 [2]; [14]): 0.016 µg/mL | MIC of ABPC when used in combination with EGCG-C16 or EGCG (MRSA ATCC43300 [2]; [8]): 1 µg/mL | MIC of IPM when used in combination with EGCG-C16 or EGCG (MRSA ATCC43300 [2]; [8]): 0.004 µg/mL | minimum EGCG-C16 concentration inhibiting growth alone (MRSA ATCC43300 [2]; MRSA ATCC43300, β-lactam agent free, mark stands in the column 16 μg/ml): *MIC | fluorescence intensity ratio of SYTOX Green (control PBS = 1) (MRSA ATCC43300 [3]): very high fluorescence intensity ratio | cell membrane-damaging action at high concentration (SYTOX Green) (MRSA ATCC43300 [3]; EGCG-C16 at 64 μg/ml): tendency for this action of EGCG-C16 to become weak
